Test results: patent EP0355353A2, “Cycloalkylthiazole derivatives” (F. HOFFMANN-LA ROCHE AG, priority 1988, dated 1990)

Assays:
Leukotriene D₄ Receptor = target: T1, Leukotriene D₄ Receptor (Cavia porcellus, UniProt Q2NNR5); assay: Leukotriene D₄ Receptor Binding Assay (Guinea Pig Lung Homogenate), displacement of ³H-LTD₄; details: guinea pig lung membrane homogenate, 3.5 nM ³H-LTD₄, 20°C, 30 minutes; read-out: LTD₄ Binding IC₅₀
T1 construct: from tissue; host or cells: guinea pig lung crude membrane fraction
T1 sequence (Q2NNR5 1-340): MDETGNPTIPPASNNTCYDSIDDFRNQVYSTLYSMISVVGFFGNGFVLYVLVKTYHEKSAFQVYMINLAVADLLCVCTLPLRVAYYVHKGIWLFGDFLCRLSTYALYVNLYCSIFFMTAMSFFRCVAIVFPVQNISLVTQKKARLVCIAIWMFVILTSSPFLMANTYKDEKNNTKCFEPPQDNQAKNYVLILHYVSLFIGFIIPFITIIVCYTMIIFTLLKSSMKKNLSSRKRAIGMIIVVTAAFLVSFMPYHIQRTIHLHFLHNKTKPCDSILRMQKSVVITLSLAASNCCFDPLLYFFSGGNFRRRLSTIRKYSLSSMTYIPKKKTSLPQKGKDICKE
Experimental: Leukotriene D₄ Receptor Binding Assay (Guinea Pig Lung Homogenate) […]
a) Preparation of membrane homogenate
Male albino guinea pigs (Hartley strain, 400-500 g body weight) were sacrificed by decapitation. The lungs were removed, frozen in liquid nitrogen and stored at -70° until use. The frozen tissue (5 g) was thawed, minced into small pieces and rinsed in phosphate-buffered saline. The tissue was placed in 40 ml homogenization buffer containing 0.25 M sucrose, 10 mM Tris-HCl, (pH 7.5), and the following protease inhibitors: soybean trypsin inhibitor (5 µg/ml) bacitracin (100 µg/ml), benzamidine (10⁻³M) and phenylmethylsulfonyl fluoride ([…]). The protease inhibitors were included to inhibit proteolysis during the processes of homogenization and centrifugation. The tissue was then homogenized at 0-4°C with a Brinkman PT-20 polytron for a total of 1 minute (10 second pulses at a setting of 6). The homogenate was centrifuged (1000 x g for 10 minutes) to remove tissue clumps, unbroken cells and nuclei. The supernatant was recentrifuged at 30,000 x g for 30 minutes to yield pellets which were referred to as crude membrane fractions. This fraction was then resuspended in the incubation buffer (10 mM Pipes buffer, pH 7.5, 50 mM NaCl), homogenized in a Teflon homogenizer and recentrifuged at 30,000 x g for 30 minutes. The pellets were finally resuspended in the incubation buffer with a Teflon homogenizer at a concentration of 10 to 20 mg/ml of protein in the suspension. The concentrations of proteins were determined using the Biorad reaction kit. […]
b) Receptor-Ligand Binding Assay
Optimum assay conditions were determined with an assay mixture containing: Tyrode solution; 0.1% bovine serum albumin (BSA); 1 mM glycine; 1 mM cysteine; 3.5 nM ³H-LTD₄ and the membrane preparation (100-200 µg protein) in a final volume of 250 µl. The incubation was carried out at 20°C for 30 minutes. At 20°C, binding increased linearly with protein concentration, reached equilibrium in 20 minutes, was saturable, and reversible upon additions of unlabelled LTD₄. Separation of bound from free ³H-LTD₄ was performed by rapid filtration on GF/C glass fiber filters and washing with two 4 ml aliquots of Tyrode solutions containing 0.1% BSA. Radioactivity remaining on the filters was measured in 10 ml of Aquasol. Specific binding was defined as that displaced by 10⁻⁶M unlabelled LTD₄ and was 95% of total binding.

[1] = system: LTD₄-Induced Bronchoconstriction; assay: Leukotriene-Induced Bronchoconstriction in Guinea Pigs - in vivo leukotriene D₄ (LTD) antagonist test, intravenous and oral testing; parameters: LTD₄-Induced Bronchoconstriction (ID₅₀) i.v. / LTD₄-Induced Bronchoconstriction (ID₅₀) p.o.: unit not given here; details: for LTD₄-Induced Bronchoconstriction (ID₅₀) i.v.: intravenous route; for LTD₄-Induced Bronchoconstriction (ID₅₀) i.v. / LTD₄-Induced Bronchoconstriction (ID₅₀) p.o.: increasing doses, value in parentheses; for Duration 10 mg/kg p.o. 4 hr.: inhibition with LTD challenge 4 hr. after administration; for Duration 10 mg/kg p.o. 8 hr.: inhibition with LTD challenge 8 hr. after administration; for inhibition at 10 mg/kg / inhibition at 1 mg/kg: Cavia porcellus; for inhibition at 10 mg/kg: 2 h, two hours prior to LTD challenge (25 µg/kg i.v.); for Duration 10 mg/kg p.o. 4 hr. / Duration 10 mg/kg p.o. 8 hr. / inhibition at 10 mg/kg / Duration 10 mg/kg p.o. 18 hr.: 10 mg/kg p.o.; for inhibition at 1 mg/kg: iv, 1 mg/kg i.v., 1 minute before LTD challenge (25 µg/kg i.v.), change in tracheal pressure; for LTD₄-Induced Bronchoconstriction (ID₅₀) p.o.: oral route, two hours prior to challenge; for Duration 10 mg/kg p.o. 18 hr.: inhibition with LTD challenge 18 hr. after administration
Experimental: Leukotriene-Induced Bronchoconstriction in Guinea Pigs - In vivo leukotriene D₄ (LTD) antagonist test
Intravenous and Oral Testing
Male guinea pigs (Hartley strain Charles River) weighing 300-500 g were anesthetized with urethane (∼2 g/kg) intraperitoneally and a polyethylene cannula was inserted into the jugular vein for intravenous drug administration. Tracheal pressure (cm of H₂0) was recorded from a Statham pressure transducer (P 32 AA). Propranolol was administered 5 minutes prior to challenge with LTD. Two minutes later spontaneous breathing was arrested with succinylcholine chloride (1.2 mg/kg) administered intravenously and the animals were ventilated with a Harvard (Model #680) small animal respirator set a 40 breaths/min and 4.0 cc stroke volume. Control vehicle or test drug was administered through the cannula into the jugular vein 1 minute before the animals were challenged intravenously with a maximum constrictory dose of LTD (25 µg/kg) given intravenously. The change in tracheal pressure was averaged for control and drug-treated animals and percent inhibition was calculated. For determination of oral activity, animals were dosed with test compound or vehicle two hours prior to challenge with LTD (25 µg/kg. i.v.).
The relative potency (ID₅₀ values) of test compounds administered by the intravenous and oral route was determined by administering increasing doses of test compound. For determination of the time course of inhibition for various compounds, the time between administration of compound and challenge with LTD was varied. The time course of activity was calculated as the time when inhibition decreased to 40%.

Row | Compound | IC50 (Leukotriene D₄ Receptor) | LTD₄-Induced Bronchoconstriction (ID₅₀) i.v. [1] | Duration 10 mg/kg p.o. 4 hr. [1] | Duration 10 mg/kg p.o. 8 hr. [1] | inhibition at 10 mg/kg [1] | inhibition at 1 mg/kg [1] | LTD₄-Induced Bronchoconstriction (ID₅₀) p.o. [1] | Duration 10 mg/kg p.o. 18 hr. [1]
1 | CC(CC(=O)Nc1cccc(/C=C/c2nc(C3CCC3)cs2)c1)C(=O)O (centres unmarked) [(E)-4-[[3-(2-(4-cyclobutyl-2-thiazolyl)ethenyl]phenyl]amino]-2-methyl-4-oxobutanoic acid] | 110 nM | (0.61) | – | – | – | – | – | –
2 | CCC(CC)(CC(=O)Nc1cccc(/C=C/c2nc(C3CCCCC3)cs2)c1)C(=O)O [(E)-4-[[3-[2-(4-cyclohexyl-2-thiazolyl)ethenyl]phenyl]amino]-2,2-diethyl-4-oxobutanoic acid] | 80 nM | 0.31 | 69±12 | 81±9 | 87 ± 6% | 96 ± 2% | 0.66 | 38+4
3 | CCC(CC)(CC(=O)Nc1cccc(/C=C/c2nc(C3CCCC3)cs2)c1)C(=O)O [(E)-4-[[3-[2-(4-cyclopentyl-2-thiazolyl)ethenyl]phenyl]amino]-2,2-diethyl-4-oxobutanoic acid] | 60 nM | 0.08 | 99+1 | 98+1 | 97 ± 1% | 99 ± 1% | 0.34 | 70±7
4 | O=C(O)CCC(=O)Nc1cccc(/C=C/c2nc(C3CC3)cs2)c1 [(E)-4-[[3-[2-(4-cyclopropyl-2-thiazolyl)ethenyl]phenyl]amino]-4-oxobutanoic acid] | 4000 nM | – | – | – | – | 15 ± 4% | – | –

Further lines, with some results ahead:

Row | IC50 (Leukotriene D₄ Receptor) | Compound | LTD₄-Induced Bronchoconstriction (ID₅₀) i.v. [1] | Duration 10 mg/kg p.o. 4 hr. [1] | Duration 10 mg/kg p.o. 8 hr. [1] | inhibition at 10 mg/kg [1] | inhibition at 1 mg/kg [1] | LTD₄-Induced Bronchoconstriction (ID₅₀) p.o. [1] | Duration 10 mg/kg p.o. 18 hr. [1]
5 | 15 nM | CCC(CC)(CC(=O)Nc1cccc(/C=C/c2nc(C3CCC3)cs2)c1)C(=O)O [(E)-4-[[3-[2-(4-cyclobutyl-2-thiazolyl)ethenyl]phenyl]amino]-2,2-diethyl-4-oxobutanoic acid] | 0.13 | 100±0 | 98±1 | 99 ± 1% | 98% | 0.12 | –
6 | 20 nM | CCC(CC)(CC(=O)Nc1cccc(/C=C/c2nc(C3CC3)cs2)c1)C(=O)O [(E)-4-[[3-[2-(4-cyclopropyl-2-thiazolyl)ethenyl]phenyl]amino]-2,2-diethyl-4-oxobutanoic acid] | 0.18 | 99±1 | 95±1 | 98 ± 1% | 94 ± 2% | 1.1 | 61±6
